Data on five molecules can be found in patent US10731187B2, “Recombinant strain producing O-aminobenzoate and fermentative production of aniline from renewable resources via 2-aminobenzoic acid” (Covestro Deutschland AG, priority 2014, dated 2020).

The conditions of data set [1]: cited from earlier work.
The target in data set [2] is T1, E. coli TrpEG (anthranilate synthase) variant TrpEGS40R, mutation S40R (SEQ ID NO: 52; SEQ ID No. 50-51) (Escherichia coli, UniProt P00895).
T1 construct: S40R lies in TrpE
The data set is described as follows: Anthranilate synthase activity in cell lysate of C. glutamicum ΔtrpD/pEKEx2-trpEG^S40R (KM and vmax). It is filed as biochemical. The following applies: raw extract (cell lysate), 25 °C, 20 mM L-glutamine, 10 mM MgCl2. From the text: In more specific embodiments of the recombinant microbial host cell of invention, the Corynebacterium glutamicum microbial host cell, preferably Corynebacterium glutamicum ATCC 13032, can further overexpress one or more of the genes selected from the group consisting of galP (SEQ ID NO: 30), iolT2 (SEQ ID NO: 31), ppgk (SEQ ID NO: 32), pps (SEQ ID NO: 33-35), ppk (SEQ ID NO: 36), zwfl (SEQ ID NO: 37), opcA (SEQ ID NO: 38-39), tktCg (SEQ ID NO: 40), tktEc (SEQ ID NO: 41), talCg (SEQ ID NO: 42), tame (SEQ ID NO: 43), a gene encoding TrpEGS38F (trpEG^S38F, SEQ ID NO: 50), a gene encoding TrpEGS38R (trpEG^S38R, SEQ ID NO: 51), a gene encoding TrpEGS40R (trpEG^S40R, SEQ ID NO: 52), a gene encoding TrpEGS40F (trpEG^S40F, SEQ ID NO: 53), the gene encoding AroGD146N (aroG^D146N, SEQ ID NO: 55), aroL of Escherichia coli LJ110 (SEQ ID NO: 93), aroK (SEQ ID NO: 94), glnA (SEQ ID NO: 95), and qsuA (SEQ ID NO: 96). […]

The subject of data set [3] is Corynebacterium glutamicum. The data set is described as follows: Growth (OD600) in shake flask cultures supplemented with toxic substances. In kind it is cell-based, Corynebacterium glutamicum DSM 20300 (=ATCC 13032). The following applies: 3 g/L, pH 7 (MOPS), 25 h. From the text: (§1) Several strains commonly used industrial biotechnology were investigated regarding their natural tolerance towards oAB and to organic solvents in question for later product extraction (e.g. 1-dodecanol or octanol). Furthermore, the influence of the used pH value was investigated. It was known from previous experiments that at least for E. coli the toxicity of aromatic compounds depends strongly on the pH value, probably because protonated acids can much more efficiently penetrate the cell membrane and accordingly their toxicity rises severely. The extraction of oAB in an organic phase is supposed to work best at low pH values, close to the isoelectric point of oAB. The most relevant host strains considered were: Escherichia coli K12, Corynebacterium glutamicum DSM 20300 (=ATCC 13032), Pseudomonas putida KT2440, Bacillus subtilis subsp. 168, Saccharomyces cerevisiae DSM 70449, and Pichia pastoris X33 (DSM 70382).
(§2) To investigate the chosen strains towards the mentioned characteristics shake flasks and small scale fermentation experiments were performed and the organisms were supplemented with the toxic substances (aminobenzoates, solvents) at differed concentrations, different pH values, and the behaviour of the strains was studied. […]

The next data set concerns P. putida. The data set is described as follows: Shake flask growth (OD600) with supplementation of toxic substances. It is filed as cell-based, Pseudomonas putida KT2440. To be noted: after octanol addition, pH 7, shake flask.
From the text: as §1, §2

The next data set deals with all organisms. In words: Toxicity of the extraction solvent octanol, shake flask growth. In kind it is cell-based. To be noted: 0.1 g/L and 3 g/L octanol.
From the text: as §1, §2

A further data set relates to E. coli. In words: Shake flask growth (OD600) with supplementation of toxic substances. It is filed as cell-based, Escherichia coli K12. To be noted: 3 g/L pAB, pH 7, shake flask.
From the text: as §1, §2

Turning to `CCCCCCCCCCCCO` [1-dodecanol], in data set [1] (1-dodecanol), the miscibility in water is given as 0.004 g/L. With `C=C(O[C@@H]1C=C(C(=O)O)C=C[C@H]1O)C(=O)O` [chorismate], in data set [2], the Vmax came to 317.9 mU/mg. `Nc1ccccc1C(=O)O` [oAB, o-aminobenzoate]: the growth inhibition result in data set [3] is “growth was not inhibited”.

Consider `CCCCCCCCO` [octanol], for which the figures for the “growth (OD600)” value in the data set on P. putida and with all organisms were “minor growth activity” and “unable to grow”, respectively. The solubility in water entry in data set [1] (octanol) is recorded as “about 0.1 g/L”. As for `Nc1ccc(C(=O)O)cc1` [pAB, 4-aminobenzoate, reference compound], the “growth (OD600)” value with E. coli is “not inhibited”.
